Source: patent US4634783A, “Novel amidine compound” (Torii & Co. Ltd., priority 1983, dated 1987)
Like-named read-outs stand apart in the source and are kept apart here.

Legend:
Plasmin = Plasmin (Homo sapiens, UniProt P00747); assay: anti-plasmin activity (hydrolysis of TAME); type: biochemical; conditions: for IC50: TAME hydrolysis, read-out: ID50 Plasmin; for inhibition at 10 µM: at 1×10^-5 M, figure in parentheses, read-out: percentage inhibition Plasmin
Protocol: (§1) The anti-trypsin, anti-plasmin, anti-kallikrein and anti-thrombin activities were determined according to the method of Muramatsu et al. [M. Muramatsu, T. Onishi, S. Makino, Y. Hayashi and S. Fujii, J. of Biochem., 58, 214 (1965)]. […] The compound No. corresponds to the compound number shown in Examples.

[1] = tested on: complement mediated hemolysis; assay: inhibition of complement mediated hemolysis; type: cell-based
Protocol: The complement mediated hemolysis is widely used as a means to determine the titration of complement. The principle of this method is based on the fact that hemolysis is caused by the activation of complement, when the latter is added to a complex (immune complex) of erythrocytes and the antibody thereof. The degree of hemolysis varies in proportion to the amount of complement added. Therefore, when a known amount of complement admixed with a C1 esterase inhibitor is used, the hemolysis must be suppressed in proportion to the inhibitory activity.
(§2) The anti-C1 esterase (C1r, C1s) activity was determined according to the method of Okamura et al. [K. Okamura, M. Muramatsu and B. Fujii, Biochem. Biophys. Acta, 295, 252-257 (1973)]. The inhibition of complement mediated hemolysis was determined according to the method of Baker et al. [B. R. Baker and E. H. Erickson, J. Med. Chem., 12, 408-414 (1969)]. The figures in Table 2 have the following meanings:
Inhibition of complement mediated hemolysis (%): The inhibitory activity is shown in terms of percent inhibition of the compound at varied concentrations: […]

Kallikrein = assay: anti-kallikrein activity (hydrolysis of TAME); type: biochemical; conditions: for IC50: TAME hydrolysis, read-out: ID50 Kallikrein; for percentage inhibition Kallikrein: at 1×10^-5 M, figure in parentheses
Protocol: as §1

C1s = biological target: T1, C1s (Homo sapiens, UniProt P09871); assay: anti-C1 esterase (C1s) activity (hydrolysis of ATEE); type: biochemical; conditions: for IC50: ATEE hydrolysis, read-out: ID50 C1s; for inhibition at 10 µM: at 1×10^-5 M, figure in parentheses, read-out: percent inhibition C1s
T1 sequence (P09871 438-688 limits assumed): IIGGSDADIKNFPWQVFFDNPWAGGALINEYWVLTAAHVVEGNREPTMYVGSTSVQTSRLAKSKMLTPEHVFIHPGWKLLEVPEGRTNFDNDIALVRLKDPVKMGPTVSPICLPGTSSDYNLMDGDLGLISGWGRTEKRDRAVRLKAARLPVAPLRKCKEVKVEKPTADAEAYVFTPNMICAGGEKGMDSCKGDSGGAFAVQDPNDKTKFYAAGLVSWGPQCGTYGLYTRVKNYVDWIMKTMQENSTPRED
T1 sequence (P09871 16-437 limits assumed): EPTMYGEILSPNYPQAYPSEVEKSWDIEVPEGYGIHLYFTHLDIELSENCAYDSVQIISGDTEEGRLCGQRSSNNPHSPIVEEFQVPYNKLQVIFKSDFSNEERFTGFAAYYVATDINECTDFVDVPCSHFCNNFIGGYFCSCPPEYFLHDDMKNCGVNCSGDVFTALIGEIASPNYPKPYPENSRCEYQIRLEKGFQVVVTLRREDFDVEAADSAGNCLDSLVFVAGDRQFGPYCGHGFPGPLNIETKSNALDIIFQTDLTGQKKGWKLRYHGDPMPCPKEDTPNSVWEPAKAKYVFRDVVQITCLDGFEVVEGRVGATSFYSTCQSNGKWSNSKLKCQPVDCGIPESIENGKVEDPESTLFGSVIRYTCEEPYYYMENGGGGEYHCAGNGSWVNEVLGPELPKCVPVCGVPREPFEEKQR
Protocol: as §2
C1s: Molar concentration of the test compound which inhibits 50% of the ability of C1s to hydrolyse ATEE (acetyltyrosin ethyl ester) (ID50).

Trypsin = biological target: T2, Trypsin (Bos taurus, UniProt P00760); assay: anti-trypsin activity (hydrolysis of TAME); type: biochemical; conditions: read-out: ID50 Trypsin
T2 sequence (P00760 24-246): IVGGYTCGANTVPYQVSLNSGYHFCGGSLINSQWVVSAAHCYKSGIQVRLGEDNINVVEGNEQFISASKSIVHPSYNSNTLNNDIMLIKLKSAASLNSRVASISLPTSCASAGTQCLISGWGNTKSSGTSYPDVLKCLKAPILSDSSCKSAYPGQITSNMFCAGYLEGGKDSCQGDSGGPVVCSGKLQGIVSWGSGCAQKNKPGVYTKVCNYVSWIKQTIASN
Protocol: as §1

Thrombin = Thrombin (Homo sapiens, UniProt P00734); assay: biochemical; conditions: for IC50: read-out: ID50 Thrombin; for inhibition at 10 µM: at 1×10^-5 M, figure in parentheses, read-out: percentage inhibition Thrombin
C1r = biological target: T3, C1r (Homo sapiens, UniProt P00736); assay: anti-C1 esterase (C1r) activity (hydrolysis of AAME); type: biochemical; conditions: for IC50: AAME hydrolysis, read-out: ID50 C1r; for inhibition at 10 µM: at 1×10^-5 M, figure in parentheses, read-out: percent inhibition C1r
T3 sequence (P00736 464-705 limits assumed): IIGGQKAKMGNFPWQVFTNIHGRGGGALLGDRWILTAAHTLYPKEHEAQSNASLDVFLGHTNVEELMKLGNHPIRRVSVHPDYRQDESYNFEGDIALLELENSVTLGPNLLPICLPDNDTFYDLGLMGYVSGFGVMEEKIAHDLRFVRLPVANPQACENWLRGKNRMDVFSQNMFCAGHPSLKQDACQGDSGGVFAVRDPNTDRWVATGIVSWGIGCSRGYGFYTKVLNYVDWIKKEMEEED
T3 sequence (P00736 18-463 limits assumed): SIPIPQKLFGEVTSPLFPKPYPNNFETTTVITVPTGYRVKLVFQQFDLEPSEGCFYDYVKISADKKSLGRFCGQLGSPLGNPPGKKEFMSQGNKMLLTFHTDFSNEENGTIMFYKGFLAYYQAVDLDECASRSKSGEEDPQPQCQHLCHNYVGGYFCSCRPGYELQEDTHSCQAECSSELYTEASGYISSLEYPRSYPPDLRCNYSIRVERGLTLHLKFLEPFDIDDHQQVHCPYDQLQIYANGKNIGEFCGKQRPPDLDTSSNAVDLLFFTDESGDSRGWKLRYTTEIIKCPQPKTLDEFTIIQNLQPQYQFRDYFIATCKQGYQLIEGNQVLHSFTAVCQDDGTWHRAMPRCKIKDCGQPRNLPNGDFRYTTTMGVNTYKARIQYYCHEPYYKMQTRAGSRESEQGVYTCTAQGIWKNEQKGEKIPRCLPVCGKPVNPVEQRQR
Protocol: as §2
C1r: Molar concentration of the test compound which inhibits 50% of the ability of C1r to hydrolyse AAME (acetylarginin methyl ester) (ID50).

Plasmin, sequence (P00747 581-810 limits assumed, species assumed): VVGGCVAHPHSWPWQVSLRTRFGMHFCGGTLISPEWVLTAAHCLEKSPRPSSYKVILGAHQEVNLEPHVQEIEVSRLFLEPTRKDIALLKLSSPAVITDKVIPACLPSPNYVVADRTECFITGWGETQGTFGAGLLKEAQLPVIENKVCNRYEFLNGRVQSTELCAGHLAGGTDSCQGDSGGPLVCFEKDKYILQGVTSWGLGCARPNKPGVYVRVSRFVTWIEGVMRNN
Plasmin, sequence (P00747 97-580 limits assumed, species assumed): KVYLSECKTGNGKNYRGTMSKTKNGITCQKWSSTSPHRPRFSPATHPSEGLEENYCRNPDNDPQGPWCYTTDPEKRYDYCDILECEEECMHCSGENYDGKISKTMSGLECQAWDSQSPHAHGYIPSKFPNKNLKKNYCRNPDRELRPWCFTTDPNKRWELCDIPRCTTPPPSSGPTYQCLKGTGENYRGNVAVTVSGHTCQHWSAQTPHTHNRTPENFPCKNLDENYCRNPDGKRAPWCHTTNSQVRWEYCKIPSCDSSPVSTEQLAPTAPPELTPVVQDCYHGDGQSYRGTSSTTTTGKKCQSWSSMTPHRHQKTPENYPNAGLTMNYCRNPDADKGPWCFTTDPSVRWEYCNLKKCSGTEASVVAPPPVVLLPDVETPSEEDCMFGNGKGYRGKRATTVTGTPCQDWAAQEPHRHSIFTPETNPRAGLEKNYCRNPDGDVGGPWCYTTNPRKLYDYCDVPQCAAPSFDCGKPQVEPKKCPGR

IC50 (Plasmin) [nM] | IC50 (Kallikrein) [nM] | IC50 (C1s) [nM] | IC50 (Trypsin) [nM] | IC50 (Thrombin; TAME hydrolysis) [nM] | IC50 (C1r) [nM] | inhibition at 10 µM (Thrombin) [%] | inhibition at 10 µM (C1r) [%] | inhibition at 10 µM (Plasmin) [%] | inhibition at 10 µM (C1s) [%] | IC50 (Thrombin) [nM] | Structure (SMILES) | Inhibition of complement mediated hemolysis ([1]; 1 × 10^-4) [%] | Inhibition of complement mediated hemolysis ([1]; 1 × 10^-5) [%] | Inhibition of complement mediated hemolysis ([1]; 1 × 10^-6) [%] | Inhibition of complement mediated hemolysis ([1]; 1 × 10^-7) | percentage inhibition Kallikrein (Kallikrein)
800 | – | 600 | 9000 | – | – | 11 | 42 | – | – | – | N=C(N)c1ccc2cc(OC(=O)C=Cc3c[nH]c4ccccc34)ccc2c1 [compound 38] | – | – | – | – | 17%
2000 | 5000 | – | 2000 | – | – | 13 | – | – | – | – | N=C(N)c1ccc2cc(OC(=O)c3ccc(Cn4ccnc4)cc3)ccc2c1 [compound 42] | – | – | – | – | –
– | – | 500 | 100 | – | 300 | 46 | – | 31 | – | – | N=C(N)c1ccc2cc(OC(=O)c3ccc4[nH]cnc4c3)ccc2c1 [compound 43] | – | – | – | – | 41%
4000 | – | – | 6000 | – | 5000 | 14 | – | – | 18 | – | N=C(N)c1ccc2cc(OC(=O)C=Cc3cccnc3)ccc2c1 [compound 50] | – | – | – | – | NE (the percentage inhibition is less than 10%)
– | – | – | – | – | – | – | 29 | – | < 10 | – | N=C(N)c1ccc2cc(OC(=O)c3ccc4ccccc4n3)ccc2c1 [compound 52] | 100 | 97 | 99 | 97% | –
3000 | 2000 | 400 | 60 | – | 3000 | 41 | – | – | – | – | N=C(N)c1ccc2cc(OC(=O)C3CCN(C(=O)OCc4ccccc4)CC3)ccc2c1 [compound 55] | – | – | – | – | –
– | – | – | 3000 | – | 2000 | – | – | 31 | 16 | 3000 | CN1c2ccccc2Sc2ccc(CC(=O)Oc3ccc4cc(C(=N)N)ccc4c3)cc21 [compound 61] | – | – | – | – | 17%
– | – | 7000 | – | – | – | – | 45 | – | – | – | N=C(N)c1ccc2cc(OC(=O)C3CCNCC3)ccc2c1 [compound 64] | – | – | – | – | –

Second part, the compound before the results:

Structure (SMILES) | IC50 (Plasmin) [nM] | IC50 (Kallikrein) [nM] | IC50 (C1s) [nM] | IC50 (Trypsin) [nM] | IC50 (Thrombin; TAME hydrolysis) [nM] | IC50 (C1r) [nM] | inhibition at 10 µM (Thrombin) [%] | inhibition at 10 µM (C1r) [%] | inhibition at 10 µM (Plasmin) [%] | inhibition at 10 µM (C1s) [%] | IC50 (Thrombin) [nM] | Inhibition of complement mediated hemolysis ([1]; 1 × 10^-4) [%] | Inhibition of complement mediated hemolysis ([1]; 1 × 10^-5) [%] | Inhibition of complement mediated hemolysis ([1]; 1 × 10^-6) [%] | Inhibition of complement mediated hemolysis ([1]; 1 × 10^-7) | percentage inhibition Kallikrein (Kallikrein)
N=C(N)Nc1ccc(CCc2ccc(C(=O)Oc3ccc4cc(C(=N)N)ccc4c3)o2)cc1 [compound 2, 6-amidino-2-naphthyl 5-(p-guanidinophenylethyl)-furan-2-carboxylate] | 400 | 300 | 400 | 200 | 500 | 200 | – | – | – | – | – | 100 | 100 | 97 | 89% | –
N=C(N)c1ccc2cc(OC(=O)c3ccco3)ccc2c1 [compound 3] | 1000 | – | 4000 | 400 | 400 | 500 | – | – | – | – | – | 100 | 100 | 100 | 100% | NE (the percentage inhibition is less than 10%)
N=C(N)c1ccc2cc(OC(=O)c3ccoc3)ccc2c1 [compound 4] | 1000 | – | 300 | 2000 | 700 | 600 | – | – | – | – | – | 100 | 65 | 30 | NE (the percentage inhibition is less than 10%) | 43%
N=C(N)c1ccc2cc(OC(=O)c3ccc(COCc4ccccc4)o3)ccc2c1 [compound 7] | 3000 | 2000 | 4000 | 500 | 400 | 300 | – | – | – | – | – | 100 | 98 | 96 | 98% | –
N=C(N)c1ccc2cc(OC(=O)c3ccc(CO)o3)ccc2c1 [compound 8] | 2000 | 4000 | 4000 | 400 | 600 | – | – | – | – | – | – | 100 | 100 | 97 | 92% | –
CC(=O)OCc1ccc(C(=O)Oc2ccc3cc(C(=N)N)ccc3c2)o1 [compound 9] | 900 | 2000 | 4000 | 500 | 300 | 300 | – | – | – | – | – | 100 | 100 | 96 | 77% | –
CSCc1ccc(C(=O)Oc2ccc3cc(C(=N)N)ccc3c2)o1 [compound 11] | 500 | 200 | 900 | 200 | 300 | 200 | – | – | – | – | – | 100 | 100 | 99 | 88% | –
COc1ccc2[nH]c(C(=O)Oc3ccc4cc(C(=N)N)ccc4c3)cc2c1 [compound 33] | 2000 | 10000 | 2000 | 200 | – | 2000 | 40 | – | – | – | – | – | – | – | – | –
COc1ccc2c(c1)c(CC(=O)Oc1ccc3cc(C(=N)N)ccc3c1)c(C)n2C(=O)c1ccc(Cl)cc1 [compound 35] | 100 | 10000 | 800 | 1 | 90 | 400 | – | – | – | – | – | – | – | – | – | –
